Laboratory results reported in ChEMBL document CHEMBL1148622, “Structural insight into the stereoselective inhibition of MMP-8 by enantiomeric sulfonamide phosphonates” (J Med Chem, 2006).

How the values were obtained:
[1] = target: 72 kDa type IV collagenase (Homo sapiens, UniProt P08253); experiment: Inhibitory activity against MMP2
Stromelysin-1 [2] = target: T1, Stromelysin-1 (Homo sapiens, UniProt P08254); experiment: Inhibitory activity against MMP3
Target sequence in this assay (P08254 whole entry): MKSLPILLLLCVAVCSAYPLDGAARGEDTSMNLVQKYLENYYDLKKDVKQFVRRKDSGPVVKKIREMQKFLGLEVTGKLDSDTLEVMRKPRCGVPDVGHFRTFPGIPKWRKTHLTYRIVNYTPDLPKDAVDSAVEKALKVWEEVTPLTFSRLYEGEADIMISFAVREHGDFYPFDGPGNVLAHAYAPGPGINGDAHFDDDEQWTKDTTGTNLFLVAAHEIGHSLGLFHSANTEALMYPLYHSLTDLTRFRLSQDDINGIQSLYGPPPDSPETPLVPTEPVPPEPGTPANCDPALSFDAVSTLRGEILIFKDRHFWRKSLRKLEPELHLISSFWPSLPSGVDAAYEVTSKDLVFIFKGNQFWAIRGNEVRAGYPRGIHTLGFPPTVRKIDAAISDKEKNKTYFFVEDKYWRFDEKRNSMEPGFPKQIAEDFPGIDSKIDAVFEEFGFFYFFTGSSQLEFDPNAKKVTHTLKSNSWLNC

Stromelysin-1 [3] = target: T1, Stromelysin-1; experiment: Inhibitory activity against MMP3 at 0.1 mM
Target sequence in this assay (P08254 100-477 limits assumed): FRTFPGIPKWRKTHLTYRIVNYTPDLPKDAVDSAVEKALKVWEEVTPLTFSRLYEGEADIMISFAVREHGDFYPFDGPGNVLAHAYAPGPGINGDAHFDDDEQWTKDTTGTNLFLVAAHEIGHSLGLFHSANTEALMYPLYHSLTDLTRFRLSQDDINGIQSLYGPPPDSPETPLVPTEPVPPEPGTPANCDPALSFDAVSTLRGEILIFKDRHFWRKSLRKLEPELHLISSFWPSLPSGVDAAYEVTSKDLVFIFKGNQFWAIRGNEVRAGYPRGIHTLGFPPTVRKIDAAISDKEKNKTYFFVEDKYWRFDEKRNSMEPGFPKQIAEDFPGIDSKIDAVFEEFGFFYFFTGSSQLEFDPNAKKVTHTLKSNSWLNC

Chain of 72 kDa type IV collagenase (P08253 whole entry): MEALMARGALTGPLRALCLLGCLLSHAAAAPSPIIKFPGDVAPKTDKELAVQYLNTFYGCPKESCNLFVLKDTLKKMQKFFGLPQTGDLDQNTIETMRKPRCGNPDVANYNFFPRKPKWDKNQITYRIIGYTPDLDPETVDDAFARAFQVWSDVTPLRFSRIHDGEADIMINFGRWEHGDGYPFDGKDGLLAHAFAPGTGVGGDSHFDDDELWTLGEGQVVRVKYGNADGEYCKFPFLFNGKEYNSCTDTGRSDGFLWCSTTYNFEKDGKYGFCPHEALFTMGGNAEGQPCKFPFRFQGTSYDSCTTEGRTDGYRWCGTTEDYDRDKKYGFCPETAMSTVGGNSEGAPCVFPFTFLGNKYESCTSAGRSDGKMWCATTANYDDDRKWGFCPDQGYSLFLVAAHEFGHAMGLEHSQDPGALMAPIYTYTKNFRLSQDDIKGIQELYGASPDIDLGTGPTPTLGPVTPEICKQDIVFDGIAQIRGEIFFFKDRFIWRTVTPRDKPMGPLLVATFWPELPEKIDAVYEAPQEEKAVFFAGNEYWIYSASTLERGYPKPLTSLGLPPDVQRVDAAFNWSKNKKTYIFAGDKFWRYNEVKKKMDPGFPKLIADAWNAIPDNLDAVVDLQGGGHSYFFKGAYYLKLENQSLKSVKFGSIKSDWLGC

IC50 [1]	IC50 (Stromelysin-1 [2])	Ki [1]	inhibition (Stromelysin-1 [3])	Ki (Stromelysin-1 [2])	Structure (SMILES)
3 nM	8 nM	–	–	–	CC(C)[C@@H](NS(=O)(=O)c1ccc(-c2ccc(Br)cc2)cc1)C(=O)NO
–	–	1200 nM	< 15%	–	COc1ccc(-c2ccc(S(=O)(=O)N[C@H](C(C)C)P(=O)(O)O)cc2)cc1
–	–	5 nM	–	40 nM	COc1ccc(-c2ccc(S(=O)(=O)N[C@@H](C(C)C)P(=O)(O)O)cc2)cc1
